Laboratory results as given in the NIST ThermoML archive (doi:10.1007/s10765-005-5570-x).

Assay: xn = mol fraction of the nth substance listed
Settings: Liquid

ClCBr [bromochloromethane] + CCOC(C)=O
Settings | mass density [kg/m3]
288.15 K, 101.33 kPa, x1 = 0.0961 | 976.08
288.15 K, 101.33 kPa, x1 = 0.2333 | 1083.23
288.15 K, 101.33 kPa, x1 = 0.3083 | 1145.77
288.15 K, 101.33 kPa, x1 = 0.4015 | 1228.4
288.15 K, 101.33 kPa, x1 = 0.5004 | 1322.97
288.15 K, 101.33 kPa, x1 = 0.604 | 1430.45
288.15 K, 101.33 kPa, x1 = 0.7004 | 1538.94
288.15 K, 101.33 kPa, x1 = 0.7987 | 1659.96
288.15 K, 101.33 kPa, x1 = 0.9032 | 1800.66
288.15 K, 101.33 kPa, x1 = 1 | 1945.94
298.15 K, 101.33 kPa, x1 = 0.0961 | 963.62
298.15 K, 101.33 kPa, x1 = 0.2333 | 1069.74
298.15 K, 101.33 kPa, x1 = 0.3083 | 1131.77
298.15 K, 101.33 kPa, x1 = 0.4015 | 1213.84
298.15 K, 101.33 kPa, x1 = 0.5004 | 1308.02
298.15 K, 101.33 kPa, x1 = 0.604 | 1414.77
298.15 K, 101.33 kPa, x1 = 0.7004 | 1522.14
298.15 K, 101.33 kPa, x1 = 0.7987 | 1641.51
298.15 K, 101.33 kPa, x1 = 0.9032 | 1780.71
298.15 K, 101.33 kPa, x1 = 1 | 1924.88
298.15 K, 200 kPa, x1 = 0.2995 | 1118.5
298.15 K, 200 kPa, x1 = 0.5013 | 1299.53
298.15 K, 200 kPa, x1 = 0.6994 | 1514.36
298.15 K, 600 kPa, x1 = 0.2995 | 1119.03
298.15 K, 600 kPa, x1 = 0.5013 | 1300.17
298.15 K, 700 kPa, x1 = 0.6994 | 1515.04
298.15 K, 1100 kPa, x1 = 0.2995 | 1119.69
298.15 K, 1200 kPa, x1 = 0.5013 | 1300.97
298.15 K, 1200 kPa, x1 = 0.6994 | 1515.77
298.15 K, 1900 kPa, x1 = 0.6994 | 1516.63
298.15 K, 2000 kPa, x1 = 0.2995 | 1120.79
298.15 K, 2100 kPa, x1 = 0.5013 | 1301.96
298.15 K, 3000 kPa, x1 = 0.5013 | 1303.21
298.15 K, 3100 kPa, x1 = 0.2995 | 1121.97
298.15 K, 3100 kPa, x1 = 0.6994 | 1518.35
298.15 K, 4000 kPa, x1 = 0.2995 | 1123.04
298.15 K, 4000 kPa, x1 = 0.5013 | 1304.49
298.15 K, 4000 kPa, x1 = 0.6994 | 1519.64
298.15 K, 4900 kPa, x1 = 0.5013 | 1305.64
298.15 K, 5100 kPa, x1 = 0.2995 | 1124.32
298.15 K, 5100 kPa, x1 = 0.6994 | 1521.08
298.15 K, 5800 kPa, x1 = 0.6994 | 1522.03
298.15 K, 6000 kPa, x1 = 0.5013 | 1306.93
298.15 K, 6100 kPa, x1 = 0.2995 | 1125.53
298.15 K, 6800 kPa, x1 = 0.6994 | 1523.33
298.15 K, 6900 kPa, x1 = 0.2995 | 1126.38
298.15 K, 7000 kPa, x1 = 0.5013 | 1308.07
298.15 K, 7800 kPa, x1 = 0.5013 | 1309.22
298.15 K, 7900 kPa, x1 = 0.2995 | 1127.44
298.15 K, 7900 kPa, x1 = 0.6994 | 1524.7
298.15 K, 8700 kPa, x1 = 0.6994 | 1525.86
298.15 K, 8800 kPa, x1 = 0.5013 | 1310.44
298.15 K, 9000 kPa, x1 = 0.2995 | 1128.74
298.15 K, 9800 kPa, x1 = 0.5013 | 1311.74
298.15 K, 9800 kPa, x1 = 0.6994 | 1527.42
298.15 K, 9900 kPa, x1 = 0.2995 | 1129.86
298.15 K, 11800 kPa, x1 = 0.2995 | 1131.84
298.15 K, 11900 kPa, x1 = 0.6994 | 1530.29
298.15 K, 12100 kPa, x1 = 0.5013 | 1314.57
298.15 K, 13800 kPa, x1 = 0.2995 | 1134.16
298.15 K, 13800 kPa, x1 = 0.6994 | 1532.98
298.15 K, 13900 kPa, x1 = 0.5013 | 1316.83
298.15 K, 15700 kPa, x1 = 0.2995 | 1136.18
298.15 K, 15900 kPa, x1 = 0.5013 | 1319.23
298.15 K, 15900 kPa, x1 = 0.6994 | 1535.7
298.15 K, 17600 kPa, x1 = 0.5013 | 1321.38
298.15 K, 17700 kPa, x1 = 0.2995 | 1138.39
298.15 K, 17700 kPa, x1 = 0.6994 | 1538.2
298.15 K, 19200 kPa, x1 = 0.6994 | 1540.32
298.15 K, 19400 kPa, x1 = 0.6994 | 1540.59
298.15 K, 19900 kPa, x1 = 0.5013 | 1324.19
298.15 K, 20000 kPa, x1 = 0.2995 | 1140.92
308.15 K, 101.33 kPa, x1 = 0.0961 | 949.99
308.15 K, 101.33 kPa, x1 = 0.2333 | 1054.79
308.15 K, 101.33 kPa, x1 = 0.3083 | 1116.41
308.15 K, 101.33 kPa, x1 = 0.4015 | 1197.33
308.15 K, 101.33 kPa, x1 = 0.5004 | 1290.38
308.15 K, 101.33 kPa, x1 = 0.604 | 1396.09
308.15 K, 101.33 kPa, x1 = 0.7004 | 1502.46
308.15 K, 101.33 kPa, x1 = 0.7987 | 1620.66
308.15 K, 101.33 kPa, x1 = 0.9032 | 1758.33
308.15 K, 101.33 kPa, x1 = 1 | 1900.86

BrCBr [dibromomethane] + CCOC(C)=O
Settings | mass density [kg/m3]
288.15 K, 101.33 kPa, x1 = 0.0522 | 966.58
288.15 K, 101.33 kPa, x1 = 0.2014 | 1147.77
288.15 K, 101.33 kPa, x1 = 0.3006 | 1277.79
288.15 K, 101.33 kPa, x1 = 0.4028 | 1419.89
288.15 K, 101.33 kPa, x1 = 0.4852 | 1542.09
288.15 K, 101.33 kPa, x1 = 0.6012 | 1725.96
288.15 K, 101.33 kPa, x1 = 0.7001 | 1895.61
288.15 K, 101.33 kPa, x1 = 0.8077 | 2095.3
288.15 K, 101.33 kPa, x1 = 0.8997 | 2281.45
288.15 K, 101.33 kPa, x1 = 1 | 2501.88
298.15 K, 101.33 kPa, x1 = 0.0522 | 954.36
298.15 K, 101.33 kPa, x1 = 0.2014 | 1133.83
298.15 K, 101.33 kPa, x1 = 0.3006 | 1262.61
298.15 K, 101.33 kPa, x1 = 0.4028 | 1404.06
298.15 K, 101.33 kPa, x1 = 0.4852 | 1525
298.15 K, 101.33 kPa, x1 = 0.6012 | 1707.9
298.15 K, 101.33 kPa, x1 = 0.7001 | 1876.1
298.15 K, 101.33 kPa, x1 = 0.8077 | 2074.59
298.15 K, 101.33 kPa, x1 = 0.8997 | 2259.57
298.15 K, 101.33 kPa, x1 = 1 | 2478.37
298.15 K, 200 kPa, x1 = 0.2995 | 1260.2
298.15 K, 200 kPa, x1 = 0.5013 | 1549.45
298.15 K, 200 kPa, x1 = 0.6994 | 1874.05
298.15 K, 500 kPa, x1 = 0.2995 | 1260.63
298.15 K, 600 kPa, x1 = 0.5013 | 1550.03
298.15 K, 600 kPa, x1 = 0.6994 | 1874.73
298.15 K, 1100 kPa, x1 = 0.2995 | 1261.34
298.15 K, 1100 kPa, x1 = 0.5013 | 1550.84
298.15 K, 1200 kPa, x1 = 0.6994 | 1875.51
298.15 K, 1900 kPa, x1 = 0.5013 | 1551.83
298.15 K, 2100 kPa, x1 = 0.2995 | 1262.47
298.15 K, 2200 kPa, x1 = 0.6994 | 1876.85
298.15 K, 2900 kPa, x1 = 0.2995 | 1263.67
298.15 K, 2900 kPa, x1 = 0.5013 | 1553.29
298.15 K, 2900 kPa, x1 = 0.6994 | 1878.02
298.15 K, 3700 kPa, x1 = 0.2995 | 1264.58
298.15 K, 3900 kPa, x1 = 0.5013 | 1554.65
298.15 K, 4200 kPa, x1 = 0.6994 | 1879.75
298.15 K, 4700 kPa, x1 = 0.5013 | 1555.68
298.15 K, 4800 kPa, x1 = 0.2995 | 1265.79
298.15 K, 5200 kPa, x1 = 0.6994 | 1881.21
298.15 K, 5900 kPa, x1 = 0.2995 | 1267.24
298.15 K, 6000 kPa, x1 = 0.5013 | 1557.43
298.15 K, 6000 kPa, x1 = 0.6994 | 1882.25
298.15 K, 6700 kPa, x1 = 0.5013 | 1558.4
298.15 K, 6800 kPa, x1 = 0.2995 | 1268.29
298.15 K, 7000 kPa, x1 = 0.6994 | 1883.78
298.15 K, 7900 kPa, x1 = 0.5013 | 1560
298.15 K, 8000 kPa, x1 = 0.2995 | 1269.58
298.15 K, 8100 kPa, x1 = 0.6994 | 1885.33
298.15 K, 8600 kPa, x1 = 0.5013 | 1561.02
298.15 K, 8900 kPa, x1 = 0.2995 | 1270.84
298.15 K, 9100 kPa, x1 = 0.6994 | 1887
298.15 K, 9800 kPa, x1 = 0.2995 | 1271.89
298.15 K, 10000 kPa, x1 = 0.5013 | 1562.92
298.15 K, 10000 kPa, x1 = 0.6994 | 1888.23
298.15 K, 10400 kPa, x1 = 0.6994 | 1888.73
298.15 K, 12000 kPa, x1 = 0.5013 | 1565.67
298.15 K, 12100 kPa, x1 = 0.2995 | 1274.55
298.15 K, 12300 kPa, x1 = 0.6994 | 1891.62
298.15 K, 13800 kPa, x1 = 0.5013 | 1568.24
298.15 K, 14000 kPa, x1 = 0.2995 | 1276.89
298.15 K, 14000 kPa, x1 = 0.6994 | 1894.37
298.15 K, 15800 kPa, x1 = 0.2995 | 1278.96
298.15 K, 15800 kPa, x1 = 0.5013 | 1570.87
298.15 K, 15900 kPa, x1 = 0.6994 | 1897.08
298.15 K, 17600 kPa, x1 = 0.5013 | 1573.34
298.15 K, 17800 kPa, x1 = 0.6994 | 1900.02
298.15 K, 17900 kPa, x1 = 0.2995 | 1281.5
298.15 K, 19800 kPa, x1 = 0.5013 | 1576.4
298.15 K, 19800 kPa, x1 = 0.6994 | 1903.09
298.15 K, 20100 kPa, x1 = 0.2995 | 1284.19
308.15 K, 101.33 kPa, x1 = 0.0522 | 940.97
308.15 K, 101.33 kPa, x1 = 0.2014 | 1118.5
308.15 K, 101.33 kPa, x1 = 0.3006 | 1245.98
308.15 K, 101.33 kPa, x1 = 0.4028 | 1385.7
308.15 K, 101.33 kPa, x1 = 0.4852 | 1505.67
308.15 K, 101.33 kPa, x1 = 0.6012 | 1686.98
308.15 K, 101.33 kPa, x1 = 0.7001 | 1854.24
308.15 K, 101.33 kPa, x1 = 0.8077 | 2050.67
308.15 K, 101.33 kPa, x1 = 0.8997 | 2234.29
308.15 K, 101.33 kPa, x1 = 1 | 2451.74
